Experimental data reported in patent publication US20100215579A1, “PHEN-NAPHTHALENE AND PHEN-QUINOLINE DERIVATIVES AND THEIR USE FOR BINDING AND IMAGING AMYLOID PLAQUES” (The Trustees of the University of Pennsylvania, priority 2007, published 2010).

Biological target: T1, amyloid plaques (Homo sapiens, UniProt P05067)
T1 construct: fibrillary Aβ plaques consisting predominately of aggregates of Aβ40 and Aβ42 peptides
Assay: Ki values of Phen-Nap, Nap-Phen derivatives (Ki binding data)

T1 sequence (P05067 672-713 limits assumed): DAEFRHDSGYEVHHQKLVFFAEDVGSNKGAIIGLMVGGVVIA
T1 sequence (P05067 672-711 limits assumed): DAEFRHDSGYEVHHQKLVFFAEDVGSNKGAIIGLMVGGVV

Row | Ki [µM] | Compound
1 | 0.0047 | CN(C)c1ccc(-c2ccc3nc(OCCOCCOCCO)ccc3c2)cc1 [Compound 32b, 2-(2-(2-(6-(4-(dimethylamino)phenyl)quinolin-2-yloxy)ethoxy)ethoxy)ethanol]
2 | 0.102 ± 0.032 | Nc1ccc(-c2ccc3nc(OCCOCCOCCF)ccc3c2)cc1 [Compound 33a, 4-(2-(2-(2-(2-fluoroethoxy)ethoxy)ethoxy)quinolin-6-yl)benzenamine]
3 | 0.109 | Nc1ccc(-c2ccc3nc(OCCOCCOCCO)ccc3c2)cc1 [Compound 33b, 2-(2-(2-(6-(4-aminophenyl)quinolin-2-yloxy)ethoxy)ethoxy)ethanol]
